# Data as given in patent US8426598B2, “N-heterocyclic M1 receptor positive allosteric modulators” (Merck, Sharp & Dohme, Corp., priority 2008, dated 2013).
# Target: T1, acetylcholine muscarinic M1 receptor (CHOnfat/hM1 cells) (Homo sapiens, UniProt P11229)
# T1 construct: expressed in transfected cells; host or cells: CHOnfat cells (CHO, Geneticin selection)
# T1 sequence (P11229 1-460): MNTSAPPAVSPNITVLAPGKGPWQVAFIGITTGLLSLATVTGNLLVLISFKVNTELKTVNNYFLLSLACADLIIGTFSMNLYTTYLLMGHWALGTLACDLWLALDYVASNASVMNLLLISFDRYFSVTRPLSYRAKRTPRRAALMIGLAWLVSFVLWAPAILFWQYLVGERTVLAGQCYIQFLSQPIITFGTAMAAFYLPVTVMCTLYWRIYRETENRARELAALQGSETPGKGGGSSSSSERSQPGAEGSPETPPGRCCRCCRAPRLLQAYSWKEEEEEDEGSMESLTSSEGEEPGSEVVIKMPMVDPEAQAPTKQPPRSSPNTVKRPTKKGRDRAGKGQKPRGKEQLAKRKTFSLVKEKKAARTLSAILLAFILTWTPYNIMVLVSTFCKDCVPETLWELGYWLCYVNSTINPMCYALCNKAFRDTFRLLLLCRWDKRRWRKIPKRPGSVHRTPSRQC
# Experiment: muscarinic FLIPR assay: intracellular calcium, potentiation of an EC20 concentration of acetylcholine
# Assay type: cell-based
# Conditions: FLIPR Ca2+, 4 min preincubation, then EC20 acetylcholine (3 nM final), read-out: IP Value (inflection point)
# Protocol: The assay studies the effect of one or several concentrations of test compounds on basal or acetylcholine-stimulated Ca^2+ levels using FLIPR.
# Compounds are prepared and subjected to a preincubation period of 4 min. Thereafter, a single EC20 concentration of acetylcholine is added to each well (3 nM final). The intracellular Ca^2+ level of each sample is measured and compared to an acetylcholine control to determine any modulatory activity.
# Cells: CHOnfat/hM1, hM2, hM3 or hM4 cells are plated 24 hr before the assay at a density of 18,000 cells/well (100 μL) in a 384 well plate. CHOnfat/hM1 and CHOnfat/hM3 Growth Medium: 90% DMEM (Hi Glucose); 10% HI FBS; 2 mM L-glutamine; 0.1 mM NEAA; Pen-Strep; and 1 mg/ml Geneticin, are added. For M2Gqi5CHOnfat and M4Gqi5CHOnfat cells, an additional 600 μg/ml hygromycin is added.
# Equipment: 384 well plate, 120 μL addition plate; 96-well Whatman 2 ml Uniplate Incubator, 37° C., 5% CO2; Skatron EMBLA-384 Plate Washer; Multimek Pipetting System; Genesis Freedom 200 System; Mosquito System; Temo Nanolitre Pipetting System; and FLIPR^384 Fluorometric Imaging Plate Reader System are used.
# Buffers. Assay Buffer: Hanks Balanced Salt Solution, with 20 mM Hepes, 2.5 mM Probenecid (Sigma P-8761) first dissolved in 1 N aqueous NaOH, 1% Bovine Serum Albumin (Sigma A-9647). Dye Loading Buffer: Assay Buffer plus 1% Fetal Bovine Serum and Fluo-4AM/Pluronic Acid Mixture. 2 mM Fluo-4AM ester stock in DMSO (Molecular Probes F-14202) Concentration of 2 μM in buffer for a final concentration of 1 μM in Assay. 20% Pluronic Acid Solution stock, with a concentration of 0.04% in Buffer, 0.02% in Assay.
# 65 μL of 2 mM Fluo-4AM are mixed with 130 μL of 20% Pluronic Acid. The resulting solution and 650 μL FBS is added to the assay buffer for a total volume of 65 mL. Positive Controls: 4-Br-A23187: 10 mM in DMSO; final concentration 10 μM. Acetylcholine: 10 mM in water, working stock at both 20 μM and 30 μM in assay buffer, final concentration of 10 μM. This is used to check the maximum stimulation of the CHOK1/hM1 cells. 20 μM (2×) acetylcholine is added in the preincubation part of the assay, and the 30 μM (3×) stock is added in the second part. (EC20)Acetylcholine: 10 mM in water, working stock of 9 nM (3×), and final concentration in assay is 3 nM. This is used after the preincubation with test compounds. Addition of the EC20 Acetylcholine to each well with a test compound will ascertain any modulator activity. 24 wells contain 3 nM Acetylcholine alone as a control.
# Screening Plate: Compounds are titrated in 96-well plates (columns 2-11), 100% DMSO, started at a concentration of 15 mM (150× stock concentration), and 3-fold serial dilutions using Genesis Freedom200 System. Four 96-well plates are combined into a 384-well plate using Mosquito Nanolitre Pipetting System by transferring 1 μl of serial diluted compounds to each well, and 1 mM acetylcholine (100× stock concentration) were added as a control. Using Temo, 49 μl assay buffer is added to each well of the 384-well plate right before assay.
# In a 96-well Whatman 2 ml Uniplate, 9 nM Acetylcholine (3×) is pipetted into wells corresponding to the screening compounds and into control wells. The 30 μM acetylcholine control (3×) is added into control wells and the 3× agonist plate is transferred into a 384-well plate.
# Cells are washed three times with 100 μL of buffer, leaving 30 μL of buffer in each well. Using Multimek, 30 μL of Dye Loading Buffer is added into each well and incubated at 37° C., 5% CO2 for up to one hr.
# After 60 min, the cells are washed three times with 100 μL of buffer, leaving 30 μL of buffer in each well. The cell plate, screening plate, and agonist addition plates are placed on the platform in the FLIPR and the door is closed. A signal test to check background fluorescence and basal fluorescence signal is performed. Laser intensity is adjusted if necessary. […]
row,Structure (SMILES),EC50
1,"O=C(O)c1cn(Cc2ccc(N3CCCC3=O)cc2)c2cccc(F)c2c1=O [Example 3, 5-Fluoro-4-oxo-1-[4-(2-oxopyrrolidin-1-yl)benzyl]-1,4-dihydroquinoline-3-carboxylic acid]",2500 nM
2,"CC(C)C(=O)Nc1ccc(Cn2cc(C(=O)O)c(=O)c3c(F)cccc32)cc1 [Example 4, 5-Fluoro-1-[4-(isobutyrylamino)benzyl]-4-oxo-1,4-dihydroquinoline-3-carboxylic acid]",308 nM
3,O=C(O)c1cn(Cc2ccc(-n3cc(CCO)cn3)cc2)c2cccc(F)c2c1=O [Example 19],32 nM
4,O=C(O)c1cn(Cc2ccc(-n3cnc(-c4ccccc4)c3)cc2)c2cccc(F)c2c1=O [Example 31],40 nM
5,"CNc1ccc(Cn2cc(C(=O)O)c(=O)c3c(F)cccc32)cc1 [Example 149, 5-Fluoro-1-[4-(methylamino)benzyl]-4-oxo-1,4-dihydroquinoline-3-carboxylic acid]",749 nM
6,"CN(C)c1ccc(Cn2cc(C(=O)O)c(=O)c3c(F)cccc32)cc1 [Example 150, 1-[4-(dimethylamino)benzyl]-5-fluoro-4-oxo-1,4-dihydroquinoline-3-carboxylic acid]",1070 nM
7,"CCOC(=O)c1cn(Cc2ccc(-n3ccc(C(C)O)n3)cc2)c2cccc(F)c2c1=O (centres unmarked) [Example 151, Ethyl 5-fluoro-1-{4-[3-(1-hydroxyethyl)-1H-pyrazol-1-yl]benzyl}-4-oxo-1,4-dihydroquinolin-3-carboxylate]",78 nM
8,"CCOC(=O)c1cn(Cc2ccc(-n3ccc(C(F)F)n3)cc2)c2cccc(F)c2c1=O [Example 153, Ethyl 1-{4-[3-(difluoromethyl)-1H-pyrazol-1-yl]benzyl}-5-fluoro-4-oxo-1,4-dihydroquinoline-3-carboxylate]",749 nM
9,"CCOC(=O)c1cn(Cc2ccc(-n3cc(C#N)cn3)cc2)c2cccc(F)c2c1=O [Example 155, Ethyl 1-[4-(4-cyano-1H-pyrazol-1-yl)benzyl]-5-fluoro-4-oxo-1,4-dihydroquinoline-3-carboxylate]",378 nM
10,"C=Cc1cnn(-c2ccc(Cn3cc(C(=O)OCC)c(=O)c4c(F)cccc43)cc2)c1 [Example 156, Ethyl 5-fluoro-4-oxo-1-[4-(4-vinyl-1H-pyrazol-1-yl)benzyl]-1,4-dihydroquinoline-3-carboxylate]",25 nM

# The remaining lines, values ahead:
row,EC50,Structure (SMILES)
1,261 nM,O=C(O)c1cn(Cc2ccc(-n3cccn3)cc2)c2c(F)ccc(F)c2c1=O [Example 1]
2,58 nM,O=C(O)c1cn(Cc2ccc(-n3cnc4ccccc43)cc2)c2c(F)ccc(F)c2c1=O [Example 2]
3,102 nM,O=C(O)c1cn(Cc2ccc(-n3ccnc3)cc2)c2cccc(F)c2c1=O [Example 6]
4,40 nM,O=C(O)c1cn(Cc2ccc(-n3ccc4ncccc43)cc2)c2cccc(F)c2c1=O [Example 36]
5,39 nM,O=C(O)c1cn(Cc2ccc(-n3cc(CO)cn3)cc2)c2cccc(F)c2c1=O [Example 59]
6,31 nM,O=C(O)c1cn(Cc2ccc(-n3cc(CF)cn3)cc2)c2cccc(F)c2c1=O [Example 62]
7,181 nM,Cc1nccn1-c1ccc(Cn2cc(C(=O)O)c(=O)c3cccc(F)c32)c(F)c1 [Example 109]
8,97 nM,O=C(O)c1cn(Cc2ccc(-n3ncc4ccccc43)cc2F)c2c(F)cccc2c1=O [Example 112]
9,45 nM,CC(=O)c1cn(-c2ccc(Cn3cc(C(=O)O)c(=O)c4cccc(F)c43)c(F)c2)c2ccccc12 [Example 120]
10,41 nM,"O=C(O)c1cn(Cc2ccc(-n3ccc(CF)n3)cc2)c2cccc(F)c2c1=O [Example 152, 5-Fluoro-1-{4-[3-(fluoromethyl)-1H-pyrazol-1-yl]benzyl}-4-oxo-1,4-dihydroquinoline-3-carboxylic acid]"
